Measured values as given in patent US6143493A, “HCMV-specific peptides, agents therefor and the use thereof” (Dade Behring Marburg GmbH, priority 1991, dated 2000).

B1: pp150: HCMV protein pp150 (protein, UniProt P08318 1-1048, looked up)
Large structural …: MSLQFIGLQRRDVVALVNFLRHLTQKPDVDLEAHPKILKKCGEKRLHRRTVLFNELMLWLGYYRELRFHNPDLSSVLEEFEVRCVAVARRGYTYPFGDRGKARDHLAVLDRTEFDTDVRHDAEIVERALVSAVILAKMSVRETLVTAIGQTEPIAFVHLKDTEVQRIEENLEGVRRNMFCVKPLDLNLDRHANTALVNAVNKLVYTGRLIMNVRRSWEELERKCLARIQERCKLLVKELRMCLSFDSNYCRNILKHAVENGDSADTLLELLIEDFDIYVDSFPQSAHTFLGARSPSLEFDDDANLLSLGGGSAFSSVPKKHVPTQPLDGWSWIASPWKGHKPFRFEAHGSLAPAAEAHAARSAAVGYYDEEEKRRERQKRVDDEVVQREKQQLKAWEERQQNLQQRQQQPPPPARKPSASRRLFGSSADEDDDDDDDEKNIFTPIKKPGTSGKGAASGGGVSSIFSGLLSSGSQKPTSGPLNIPQQQQRHAAFSLVSPQVTKASPGRVRRDSAWDVRPLTETRGDLFSGDEDSDSSDGYPPNRQDPRFTDTLVDITDTETSAKPPVTTAYKFEQPTLTFGAGVNVPAGAGAAILTPTPVNPSTAPAPAPTPTFAGTQTPVNGNSPWAPTAPLPGDMNPANWPRERAWALKNPHLAYNPFRMPTTSTASQNTVSTTPRRPSTPRAAVTQTASRDAADEVWALRDQTAESPVEDSEEEDDDSSDTGSVVSLGHTTPSSDYNNDVISPPSQTPEQSTPSRIRKAKLSSPMTTTSTSQKPVLGKRVATPHASARAQTVTSTPVQGRLEKQVSGTPSTVPATLLQPQPASSKTTSSRNVTSGAGTSSASSARQPSASASVLSPTEDDVVSPATSPLSMLSSASPSPAKSAPPSPVKGRGSRVGVPSLKPTLGGKAVVGRPPSVPVSGSAPGRLSGSSRAASTTPTYPAVTTVYPPSSTAKSSVSNAPPVASPSILKPGASAALQSRRSTGTAAVGSPVKSTTGMKTVAFDLSSPQKSGTGPQPGSAGMGGAKTPSDAVQNILQKIEKIKNTEE
B2: XP1: recombinant protein section, amino acid 718-880 of HCMV protein pp150 (protein)
chain: DPRFTDTLVDITDTETSAKPPVTTAYKFEQPTLTFGAGVNVPAGAGAAILTPTPVNPSTAPAPAPTPTFAGTQTPVNGNSPWAPTAPLPGDMNPANWPRERAWALKNPHLAYNPFRMPTTSTASQNTVSTTPRRPSTPRAAVTQTASRDAADEVWALRDQTA

What was measured:
CMV IgG-positive sera = assay: ELISA on peptide-coated microtiter plates with HCMV-positive human sera (localization of epitopes); type: binding; conditions: plates coated with 2.5 μg peptide per ml, serum 1:2; for Reactivity (individual reactivities of the synthetic pXP1 segments with the assayed group of CMV IgG-positive sera): Table 2; for Reactivity (individual reactivities of particularly reactive peptides with the assayed group of CMV IgG-positive sera): Table 3
Experimental: A microtiter plate with 96 wells was coated with a synthesized peptide. To do this, a solution of 2.5 μg of peptide per ml of carbonate buffer was made up and introduced in 100 μl portions into the wells for the coating. The peptides were adsorbed onto the surfaces at 4° C. overnight and, after removal of the peptide solution, the wells were washed several times with washing buffer (50 mM Tris, pH 7.2, 10 mM EDTA, 0.2% Tween 20). Then individual human serum samples in a 1:2 dilution were introduced and incubated at 37° C. for 1 hour. After another washing step, the conjugate antibody specific for human IgG antibodies or human IgM antibodies and labeled with peroxidase was added and the mixture was incubated at room temperature for 0.5 hour. The reaction was subsequently stopped by adding 0.5 M sulfuric acid and extinction of the individual samples was measured at a wavelength of 450/650 nm in a photometer.
To test the immunogenicity, peptides of various length from the complete amino-acid sequence region from 718 to 880 of the HCMV protein pp150 (Tab. 2 and 3) were synthesized as described in Example 1. Subsequently, as in Example 2, the microtiter plates were coated with the synthesized peptides, and the immunological reactivity was assayed. […] The three immunologically reactive peptides have the following sequences: […]

[1] = system: monoclonal antibody 87-55/02; assay: Reaction of monoclonal antibody 87-55/02 with peptide-coated ELISA plate; type: binding; conditions: immunoblot and ELISA reactivity
Text: It was concluded from the method for selecting the monoclonal antibody that the identified epitope must have a very important structure which is not even destroyed by denaturation of the complete protein. This monoclonal antibody correspondingly reacts both with the synthesized peptide 2.7 (SEQ ID NO:26) and with the recombinant protein XP1 (SEQ ID NO:33) and the pp150 protein of HCMV.

| Molecule | Reactivity (individual reactivities of the synthetic pXP1 segments with the assayed group of CMV IgG-positive sera) (CMV IgG-positive sera) [%] | Reactivity (individual reactivities of particularly reactive peptides with the assayed group of CMV IgG-positive sera) (CMV IgG-positive sera) [%] | reaction with monoclonal antibody 87-55/02 [1] |
| --- | --- | --- | --- |
| ala ser arg asp ala ala asp glu val trp ala leu arg asp gln thr ala (ASRDAADEVWALRDQTA) [Peptide 3.2] | 80 | 80 |  |
| ala tyr lys phe glu gln pro thr leu thr phe gly ala gly val asn val pro ala gly ala gly ala ala ile leu thr pro thr pro val asn pro ser thr ala pro ala pro ala pro (AYKFGQPTLTFGAGVNVPAGAGAAILTPTPVNPSTAPAPAP) [Peptide 1.13] |  | 90 |  |
| arg ala trp ala leu lys asn pro his leu ala tyr asn pro phe (RAWALKNPHLAYNPF) [Peptide 2.10] | 80 | 80 |  |
| phe glu gln pro thr leu thr phe gly ala gly val asn val pro ala gly ala gly ala ala ile leu thr pro thr pro val asn pro ser thr ala pro ala pro ala (FEQPTLTFGAGVNVPAGAGAAILTPTPVNPSTAPAPA) [Peptide 1.4] |  | 90 |  |
| pro ala gly ala gly ala ala ile leu thr pro thr pro val asn pro ser thr ala pro ala pro ala pro thr pro thr phe ala gly thr (PAGAGAAILTPTPVNPSTAPAPAPTPTFAGT) [Peptide 1.10] |  | 80 |  |
| pro arg ala ala val thr gln thr ala ser arg asp ala ala (PRAAVTQTASRDAA) [Peptide 3.1] | 60 | 60 |  |
| B1 |  |  | reacts |
| B2 |  |  | reacts |
